In PMC4608732, “Phosphorylation and Internalization of Lysophosphatidic Acid Receptors LPA1, LPA2, and LPA3” (PLoS ONE, 2015):
pEC50, pIC50: −log10 of the molar value.

Tests used:
Format in all cases: cell-based
[1] = target: T1, LPA1 receptor (Mus musculus, UniProt P61793); assay: Heterologous (PMA) / homologous (LPA) desensitization of LPA-induced calcium response, LPA1 cells
T1 construct: expressed in transfected cells
Experimental: (§1) This procedure has been described previously. Briefly, cells were loaded with 2.5 μM Fura-2 AM in Krebs–Ringer–Hepes containing 0.05% bovine serum albumin (pH 7.4) for 1 h at 37°C and then washed to eliminate unincorporated indicator. Determinations were carried in an AMINCO-Bowman Series 2 luminescence spectrometer, employing 340 and 380 nm excitation wavelengths and an emission wavelength of 510 nm; chopper interval was 0.5 sec. The intracellular calcium concentration was calculated as described by Grynkiewicz et al.. In the experiments where prolonged incubation was required (resensitization studies), cells were stimulated, washed, and the incubation was continued in the presence of Fura-2 AM, to avoid dye depletion.
(§2) Agonists-mediated decreases occurred in a concentration-dependent fashion, with a maximum at the concentration of ~ 100 nM. […] It is worth noticing that the shift in the curves was more pronounced in LPA1- or LPA3-expressing cells, than in those that expressed the LPA2 subtype.
(§3) Plotted are the increases in calcium as the percentage of that obtained in cells preincubated without any agent as mean ± S. E. M. of 6 experiments using different cell preparations.

[2] = target: T2, LPA2 receptor (Homo sapiens, UniProt Q9HBW0); assay: Heterologous (PMA) / homologous (LPA) desensitization of LPA-induced calcium response, LPA2 cells
T2 sequence (Q9HBW0 whole entry): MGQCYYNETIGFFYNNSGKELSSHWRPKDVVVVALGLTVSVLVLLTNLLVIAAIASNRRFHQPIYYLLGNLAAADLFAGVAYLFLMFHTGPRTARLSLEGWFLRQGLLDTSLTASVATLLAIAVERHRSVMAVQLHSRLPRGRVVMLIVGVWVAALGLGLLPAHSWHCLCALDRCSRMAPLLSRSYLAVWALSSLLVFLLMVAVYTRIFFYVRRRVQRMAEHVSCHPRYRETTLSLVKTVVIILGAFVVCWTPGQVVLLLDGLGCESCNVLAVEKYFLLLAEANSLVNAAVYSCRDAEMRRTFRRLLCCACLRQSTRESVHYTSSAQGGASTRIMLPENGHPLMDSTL
Experimental: as §1, §2, §3

[3] = target: T3, LPA3 receptor (Homo sapiens, UniProt Q9UBY5); assay: Heterologous (PMA) / homologous (LPA) desensitization of LPA-induced calcium response, LPA3 cells
T3 sequence (Q9UBY5 1-353): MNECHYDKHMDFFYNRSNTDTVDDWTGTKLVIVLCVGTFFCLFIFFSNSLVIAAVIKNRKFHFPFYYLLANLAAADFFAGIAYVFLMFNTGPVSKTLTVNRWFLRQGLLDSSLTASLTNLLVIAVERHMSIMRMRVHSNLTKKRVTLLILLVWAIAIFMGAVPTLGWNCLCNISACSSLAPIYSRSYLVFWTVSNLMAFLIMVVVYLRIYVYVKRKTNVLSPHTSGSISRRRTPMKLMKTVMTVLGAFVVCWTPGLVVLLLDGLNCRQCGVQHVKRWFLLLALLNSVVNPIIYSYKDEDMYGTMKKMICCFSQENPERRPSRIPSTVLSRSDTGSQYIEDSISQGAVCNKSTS
Experimental: as §1, §2, §3

[4] = target: T1, LPA1 receptor; assay: LPA1 receptor phosphorylation ([32P]Pi labeling, immunoprecipitation)
Experimental: (§4) The procedure was very similar to that previously described to study LPA1 receptor phosphorylation. In brief, cells were incubated in phosphate-free Dulbecco’s modified Eagle’s medium containing 100 μCi/ml [^32P]Pi for 3 h at 37°C. LPA1- and LPA2-expressing cells were cultured in 6 well plates, whereas those expressing LPA3 receptors were cultured in 10 cm dishes. Labeled cells were stimulated with the agents tested and then washed twice with ice-cold phosphate buffered saline and solubilized in buffer containing 10 mM Tris, 150 mM NaCl, 1% sodium cholate, 1% Nonident P40, protease and phosphatase inhibitors, pH 7.4 [11, 12, 14]. The lysates were incubated overnight with protein A-agarose and anti-GFP serum with constant agitation at 4°C. Samples were washed and the pellets containing the immunocomplexes were solubilized in Laemmli’s sample buffer containing 5% β-mercaptoethanol. Proteins were separated using 10% SDS-PAGE and electrotransferred onto polyvinyliden fluoride membranes. Receptor phosphorylation was analyzed with a Molecular Dynamics Typhoon PhosphorImager and the ImageJ software (http://rsb.info.nih.gov/ij/).

[5] = target: T2, LPA2 receptor; assay: LPA2 receptor phosphorylation ([32P]Pi labeling, immunoprecipitation)
Experimental: as §4

[6] = target: T3, LPA3 receptor; assay: LPA3 receptor phosphorylation ([32P]Pi labeling, immunoprecipitation)
[7] = target: T1, LPA1 receptor; assay: LPA1 receptor internalization, confocal imaging; conditions: 1 μM agent, 30 or 60 min, LPA1 cells
Experimental: (§5) Cells were seeded at approximately 30% confluence onto glass-bottomed Petri dishes and cultured for 3 h at 37°C in media containing 1% serum. After treatment, cells were washed three times with phosphate buffered saline and fixed with 4% paraformaldehyde in 0.1 M phosphate buffer for 20 min at room temperature; samples were then washed three additional times with phosphate buffered saline. The fluorescent images were acquired with an Olympus Fluoview FV10 confocal microscope with a water-immersion objective (60X). To determine receptor internalization, the plasma membrane was delineated utilizing the differential interference contrast imaging, and fluorescence in this region was quantified employing the ImageJ software. At least 5 or 6 images of different cultures were taken for each condition. Data were normalized as follows: for each experiment, fluorescence (arbitrary units) at the plasma membrane of baseline samples were pooled and the average was considered as 100%.

[8] = target: T2, LPA2 receptor; assay: LPA2 receptor internalization, confocal imaging; conditions: 1 μM agent, 30 or 60 min, LPA2 cells
Experimental: as §5

[9] = target: T3, LPA3 receptor; assay: LPA3 receptor internalization, confocal imaging; conditions: 1 μM agent, 30 or 60 min, LPA3 cells
Experimental: as §5

[10] = read-out: IC50, inhibition of LPA-induced calcium response (heterologous desensitization)

T1 sequence (P61793 whole entry): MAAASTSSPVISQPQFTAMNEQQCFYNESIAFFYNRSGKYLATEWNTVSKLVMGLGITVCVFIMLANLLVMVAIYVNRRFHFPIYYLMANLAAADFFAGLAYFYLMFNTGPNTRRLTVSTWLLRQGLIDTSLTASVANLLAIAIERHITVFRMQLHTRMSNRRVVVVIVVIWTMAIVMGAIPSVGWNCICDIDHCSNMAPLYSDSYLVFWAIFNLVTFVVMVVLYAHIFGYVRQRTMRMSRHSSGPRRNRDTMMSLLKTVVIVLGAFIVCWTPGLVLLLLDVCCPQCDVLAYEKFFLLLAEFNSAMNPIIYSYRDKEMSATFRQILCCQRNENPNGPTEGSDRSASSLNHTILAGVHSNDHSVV

SMILES: CN(C)CCCn1cc(C2=C(c3c[nH]c4ccccc34)C(=O)NC2=O)c2ccccc21 [bisindolylmaleimide I, Bisindolylmaleimide I]
- effect on LPA-induced desensitization ([1]; 15 min preincubation with inhibitor, 1 μM LPA, LPA1 cells): unable to alter LPA-induced desensitization
- effect on PMA-induced desensitization ([1]; 15 min preincubation with inhibitor, 1 μM PMA, LPA1 cells): markedly diminished PMA-induced desensitization
- effect on LPA-induced desensitization ([2]; 15 min preincubation with inhibitor, 1 μM LPA, LPA2 cells): unable to alter LPA-induced desensitization
- effect on PMA-induced desensitization ([2]; 15 min preincubation with inhibitor, 1 μM PMA, LPA2 cells): markedly diminished PMA-induced desensitization
- effect on LPA-induced desensitization ([3]; 15 min preincubation with inhibitor, 1 μM LPA, LPA3 cells): unable to alter LPA-induced desensitization
- effect on PMA-induced desensitization ([3]; 15 min preincubation with inhibitor, 1 μM PMA, LPA3 cells): markedly diminished PMA-induced desensitization

SMILES: CCCCCCCCCCCCCC(=O)O[C@@H]1[C@@H](C)[C@@]2(O)[C@@H](C=C(CO)C[C@]3(O)C(=O)C(C)=C[C@@H]23)[C@@H]2C(C)(C)[C@]12OC(C)=O [PMA, phorbol myristate acetate]
- pIC50 [1, 10]: 8.52 to 9.00
- remaining calcium response to LPA ([2]; LPA2 cells, highest PMA concentration tested): 30–40%
- pIC50 [2, 10]: 8.00 to 8.52
- pIC50 [3, 10]: 8.00 to 8.52
- pEC50 [4]: 8.00 to 8.52
- time to maximum receptor phosphorylation ([4]; 1 μM agent, LPA1 cells): ≤ 5 min
- concentration at which receptor phosphorylation saturates ([4]; 15 min incubation, LPA1-overexpressing cells): 100 nM
- time to maximum receptor phosphorylation ([5]; 1 μM agent, LPA2 cells): ≤ 5 min
- concentration-response curve, receptor phosphorylation ([5]; 15 min incubation, LPA2-overexpressing cells, shift to higher concentrations): no clear saturation was obtained
- pEC50 [6]: 8.00 to 8.52
- time to maximum receptor phosphorylation ([6]; 1 μM agent, LPA3 cells): ≤ 5 min
- concentration at which receptor phosphorylation saturates ([6]; 15 min incubation, LPA3-overexpressing cells): 100 nM
- receptor internalization (fluorescence at the plasma membrane) [7]: markedly decreasing fluorescence at the plasma membrane level
- receptor internalization (decrease in fluorescence at the plasma membrane, compared with other subtypes) [8]: much less intense
- receptor internalization (fluorescence at the plasma membrane) [9]: markedly decreasing fluorescence at the plasma membrane level
